Laboratory results reported in patent US7988972B2, “Immunoreactive peptides from Epstein-Barr virus” (Ortho-Clinical Diagnostics, Inc., priority 1993, dated 2011).

Legend:
[1] = test system: antibodies to peptides 50.10 (EA-D) and 17.1 (EA-R) in sequential sera; test: IgG ELISA on sequential sera of a patient with acute infectious mononucleosis; assay type: binding, human; conditions: sera at 1.20 dilution, (+) >0.25
Text: The early antigen D-R transition was followed in a patient during a course of acute infectious mononucleosis. Antibodies to peptides 50.10 (EA-D) and 17.1 (EA-R) were detected by ELISAs on specimens collected over a six month duration. […] Therefore, the peptides of the invention are useful for monitoring the course of EBV-associated disease in a patient.

[2] = test system: EA reactive antibody (IgG) in infectious mononucleosis (IM) sera; test: ELISA, EA peptides with EBV infectious mononucleosis sera; assay type: binding, human; conditions: for ELISA result, peptides with and without extensions: EA positive EBV IM acute serum; for O.D.: 420 nm; for 50.1 ELISA (OD reading): IFA EA <10, OD >0.2 positive
Protocol: ELISA. The ELISA for measuring specific antibodies to p17, p50 or to the synthetic peptides was performed as previously described in detail (Luka et al., J. Immunol. Methods, 67:145-156, 1984). Aliquots of different antigen concentrations were diluted in 0.5M Na2CO3 buffer, pH 9.5, added to wells in polystyrene microtiter plates (Linbro) and the plates incubated overnight at 4° C. Following this incubation period, the plates were washed 5× with Tris-HCl, pH 7.4, containing 0.05% Tween 20, 50 mM NaCl and 100 mg per liter albumin (Sigma) and dried for 20 minutes at room temperature. The plates were screened with different anti-EA-R or EA-D antibody positive human sera and the monoclonal antibody to p17 or p50 to identify the optimal concentration of antigen to be used in the serological studies. Alkaline-phosphatase-labelled goat anti-human IgG (Sigma) or goat anti-mouse IgG (Sigma) was used as the indicator system.
For the testing of human sera for antibodies to native p17, p50 or to the synthetic peptides, sera were diluted 1:10 in ELISA buffer, added in 0.1 ml volumes to wells coated with optimal concentrations of antigen and the plates were incubated for 60 minutes at room temperature. After 4 washes with ELISA buffer, 100 μl of alkaline phosphatase-labelled goat anti-human IgG in ELISA buffer were added to each well and the plates were incubated at room temperature for 1 hour. Following four more washes in buffer, the enzyme reaction was performed by dissolving 1 mg per ml of Sigma alkaline phosphatase substrate in 1M diethanolamine buffer, pH 10.4, containing 1 mM MgCl2 and 0.1 mM ZnCl2, and 100 μl of the mixture was then added to each well. The reaction was allowed to proceed for 30 minutes at 37° C. and then the plates were screened directly with a microplate reader, TITERTEK MULTISKAN MC (Flow), at 420 nm. Readings above 0.1 which was 2× the background noted with antibody-negative sera were considered positive reactions.
When the entire 50.10 peptide was tested with 1M sera, 24/32 or 75% of the sera contained EA-D reactive antibody (IgG) (Table 4).
Serological reactivity of EA peptides p17.1 and p50.1 which contained additional amino acids on their amino and carboxy termini was tested on EBV IM acute sera which was EA positive. The ELISA results shown in Table 5 indicate that the additional amino acids improved reactivity for both EA peptides.
Immunofluorescence assays (IFA) were performed as described by Henle, et al. (Int. J. Cancer, 8:272-282, 1971). Western blot analysis was done by methods commonly used in the art (See for example, Coligan, et al., Current Protocols in Immunology, Wiley Interscience, 1991, Unit 12). Samples of EBV-infected cell lysates (P3HR-1) were tested with human whole antiserum from positive humans (Pearson, et al., Virology, 160:151-161, 1987). A comparison was made between EA serology by IFA, using the EA-D 50.1 peptide antisera, and ELISA serology using 50.1 peptide (see Example 2).

[3] = 32 IM sera, values >0.5 positive (O.D. 420 nm)

## KQKHPKKVKQAFNPL [p50.10, synthetic peptide from 50 Kd early antigen (EA-D) region of EBV]
[1]; serum no. 9817, May 26, 1988
  IgG ELISA O.D. reading: 0.104
[1]; serum no. 9820, May 31, 1988
  IgG ELISA O.D. reading: 0.094
[1]; serum no. 9829, Jun. 07, 1988
  IgG ELISA O.D. reading: 0.120
[1]; serum no. 9941, Jun. 20, 1988
  IgG ELISA O.D. reading: 0.147
[1]; serum no. 9983, Jun. 27, 1988
  IgG ELISA O.D. reading: 0.817
[1]; serum no. 10064, Jul. 18, 1988
  IgG ELISA O.D. reading: 0.821
[1]; serum no. 10237, Aug. 29, 1988
  IgG ELISA O.D. reading: 0.561
[1]; serum no. 10271, Sep. 20, 1988
  IgG ELISA O.D. reading: 0.100
[1]; serum no. 10488, Oct. 21, 1988
  IgG ELISA O.D. reading: 0.095
[1]; serum no. 10546, Nov. 15, 1988
  IgG ELISA O.D. reading: 0.140
[2]; [3]
  % Positive: 75%
  IM sera positive / tested: 24/32
[2]; sample no. 2241
  ELISA result, peptides with and without extensions: 0.673
[2]; sample no. 12498
  ELISA result, peptides with and without extensions: 0.342
[2]; sample no. 12836
  ELISA result, peptides with and without extensions: 0.722
[2]; IM serum sample no. 2241
  SCORE: + (Values >0.5 were considered positive (O.D. readings at 420 nm).)
[2]; IM serum sample no. 11984
  SCORE: + (Values >0.5 were considered positive (O.D. readings at 420 nm).)
  O.D.: 0.722
[2]; IM serum sample no. 12005
  SCORE: − (Values >0.5 were considered positive (O.D. readings at 420 nm).)
  O.D.: 0.441
[2]; IM serum sample no. 12288
  SCORE: + (Values >0.5 were considered positive (O.D. readings at 420 nm).)
  O.D.: 0.610
[2]; IM serum sample no. 12407
  SCORE: + (Values >0.5 were considered positive (O.D. readings at 420 nm).)
  O.D.: 0.751
[2]; IM serum sample no. 12409
  SCORE: + (Values >0.5 were considered positive (O.D. readings at 420 nm).)
  O.D.: 0.609
[2]; IM serum sample no. 12418
  SCORE: − (Values >0.5 were considered positive (O.D. readings at 420 nm).)
  O.D.: 0.382
[2]; IM serum sample no. 12498
  SCORE: − (Values >0.5 were considered positive (O.D. readings at 420 nm).)
[2]; IM serum sample no. 12502
  SCORE: − (Values >0.5 were considered positive (O.D. readings at 420 nm).)
  O.D.: 0.270
[2]; IM serum sample no. 12587
  SCORE: + (Values >0.5 were considered positive (O.D. readings at 420 nm).)
  O.D.: 0.890
[2]; IM serum sample no. 12600
  SCORE: − (Values >0.5 were considered positive (O.D. readings at 420 nm).)
  O.D.: 0.323
[2]; IM serum sample no. 12611
  SCORE: − (Values >0.5 were considered positive (O.D. readings at 420 nm).)
  O.D.: 0.436
[2]; IM serum sample no. 12801
  SCORE: + (Values >0.5 were considered positive (O.D. readings at 420 nm).)
  O.D.: 0.605
[2]; IM serum sample no. 12828
  SCORE: + (Values >0.5 were considered positive (O.D. readings at 420 nm).)
  O.D.: 0.895
[2]; IM serum sample no. 12829
  SCORE: + (Values >0.5 were considered positive (O.D. readings at 420 nm).)
  O.D.: 0.652
[2]; IM serum sample no. 12836
  SCORE: + (Values >0.5 were considered positive (O.D. readings at 420 nm).)
[2]; IM serum sample no. 12837
  SCORE: + (Values >0.5 were considered positive (O.D. readings at 420 nm).)
  O.D.: 1.491
[2]; IM serum sample no. 12840
  SCORE: + (Values >0.5 were considered positive (O.D. readings at 420 nm).)
  O.D.: 0.723
[2]; IM serum sample no. 12888
  SCORE: + (Values >0.5 were considered positive (O.D. readings at 420 nm).)
  O.D.: 0.847
[2]; IM serum sample no. 12889
  SCORE: + (Values >0.5 were considered positive (O.D. readings at 420 nm).)
  O.D.: 1.184
[2]; IM serum sample no. 12892
  SCORE: + (Values >0.5 were considered positive (O.D. readings at 420 nm).)
  O.D.: 0.634
[2]; IM serum sample no. 12893
  SCORE: + (Values >0.5 were considered positive (O.D. readings at 420 nm).)
  O.D.: 0.626
[2]; IM serum sample no. 12899
  SCORE: + (Values >0.5 were considered positive (O.D. readings at 420 nm).)
  O.D.: 0.895
[2]; IM serum sample no. 12900
  SCORE: − (Values >0.5 were considered positive (O.D. readings at 420 nm).)
  O.D.: 0.498
[2]; IM serum sample no. 13075
  SCORE: − (Values >0.5 were considered positive (O.D. readings at 420 nm).)
  O.D.: 0.252
[2]; IM serum sample no. 13419
  SCORE: + (Values >0.5 were considered positive (O.D. readings at 420 nm).)
  O.D.: 0.678
[2]; IM serum sample no. 13637
  SCORE: + (Values >0.5 were considered positive (O.D. readings at 420 nm).)
  O.D.: 0.886
[2]; IM serum sample no. 13769
  SCORE: + (Values >0.5 were considered positive (O.D. readings at 420 nm).)
  O.D.: 1.307
[2]; IM serum sample no. 13929
  SCORE: + (Values >0.5 were considered positive (O.D. readings at 420 nm).)
  O.D.: 1.031
[2]; IM serum sample no. 14043
  SCORE: + (Values >0.5 were considered positive (O.D. readings at 420 nm).)
  O.D.: 0.631
[2]; IM serum sample no. 14128
  SCORE: + (Values >0.5 were considered positive (O.D. readings at 420 nm).)
  O.D.: 0.693
[2]; IM serum sample no. 14131
  SCORE: + (Values >0.5 were considered positive (O.D. readings at 420 nm).)
  O.D.: 0.530
[2]; acute EBV IM sample 12502, diluted 1:10, EA-D Western blot positive
  50.1 ELISA (OD reading): 0.409
[2]; acute EBV IM sample 12840, diluted 1:10, EA-D Western blot positive
  50.1 ELISA (OD reading): 0.257
[2]; acute EBV IM sample 13769, diluted 1:10, EA-D Western blot positive
  50.1 ELISA (OD reading): 1.034
